Format in all cases: cell-based
Assay [1] concerns fibronectin. Nature of the assay: Fibronectin secretion by cultured human fibroblasts (ELISA). The settings on record: 3 days, 1.0% final concentration. An excerpt: Laminin and fibronectin are major proteins in the dermal-epidermal junction (DEJ) (also referred to as the basement membrane). The DEJ is located between the dermis and the epidermis interlocks forming fingerlike projections called rete ridges. The cells of the epidermis receive their nutrients from the blood vessels in the dermis. The rete ridges increase the surface area of the epidermis that is exposed to these blood vessels and the needed nutrients. The DEJ provides adhesion of the two tissue compartments and governs the structural integrity of the skin. Laminin and fibronectin are two structural glycoproteins located in the DEJ. […] Laminin and fibronectin secretion was monitored by quantifying laminin and fibronectin in cell supernatants of cultured human fibroblasts treated for 3 days with culture medium with or without 1.0% final concentration of the test ingredient(s). Following incubation, laminin and fibronectin contents were measured using immunofluorescent antibodies directed against each protein in an enzyme linked immuno-sorbant assay (ELISA). Measurements were normalized for cellular metabolic activity, as determined by bioconversion of 3-(4,5-dimethylthiazol-2-yl)-5-(3-carboxymethoxyphenyl)-2-(4-sulfophenyl)-2H-tetrazolium (MTS).

Assay [2] relates to procollagen peptide. Briefly: Collagen stimulation: procollagen peptide production by human epidermal fibroblasts (ELISA). The settings on record: for Collagen Production, Activity compared to control: human fibroblasts treated 3 days. An excerpt: Collagen is an extracellular matrix protein critical for skin structure. Increased synthesis of collagen helps improve skin firmness and elasticity. This bioassay was used to examine the effect of Alpinia galangal leaf extract, dihydroxymethyl chromone, tripeptide-1, Alteromonas ferment filtrate, Pisum Sativum (pea) extract, and/or TAUT on the production of procollagen peptide (a precursor to collagen) by human epidermal fibroblasts. The endpoint of this assay was a spectrophotometric measurement that reflects the presence of procollagen peptide and cellular viability. The assay employed the quantitative sandwich enzyme immunoassay technique whereby a monoclonal antibody specific for procollagen peptide had been pre-coated onto a microplate. Standards and samples were pipetted into the wells and any procollagen peptide present was bound by the immobilized antibody. After washing away any unbound substances, an enzyme-linked polyclonal antibody specific for procollagen peptide was added to the wells. Following a wash to remove any unbound antibody-enzyme reagent, a substrate solution was added to the wells and color develops in proportion to the amount of procollagen peptide bound in the initial step using a microplate reader for detection at 450 nm. The color development was stopped and the intensity of the color was measured.
For generation of samples and controls, subconfluent normal human adult epidermal fibroblasts (Cascade Biologics) cultivated in standard DMEM growth medium with 10% fetal bovine serum (Mediatech) at 37° C. in 10% CO2, were treated with each of the ingredients for 3 days. Following incubation, cell culture medium was collected and the amount of procollagen peptide secretion quantified using a sandwich enzyme linked immuno-sorbant assay (ELISA) from Takara (# MK101).

For assay [3], the system named is hyaluronic acid. Briefly: Production of hyaluronic acid in adult human dermal fibroblasts (HDFa), ELISA. The settings on record: for Hyaluronic Acid Production, Activity compared to control: HDFa cells, 24 hours. The protocol:
Changes in the production of hyaluronic acid in human dermal fibroblasts due to each of Centella asiatica meristem cell culture, Alpinia galangal leaf extract, tripeptide-1, and TAUT were measured. Hyaluronic acid (HA) is a polysaccharide involved in stabilization of the structure of the matrix and is involved in providing turgor pressure to tissue and cells. As one non-limiting example, HA production in treated and non-treated adult human dermal fibroblasts (HDFa) cells was determined using the Hyaluronan DuoSet ELISA kit from R&D Systems (DY3614). In this assay, for production of samples, subconfluent HDFa cells from Cascade Biologics (C-13-5C) were incubated at 37° C. and 10% CO2 in starvation medium (0.15% fetal bovine serum and 1% Penicillin Streptomycin solution in Dulbecco's Modified Eagle Medium) for 72 hours prior to treatment. The cells were then incubated with fresh starvation medium with either test compound, positive control (phorbol 12-myristate 13-acetate from Sigma-Aldrich (P1585) and platelet derived growth factor from Sigma-Aldrich (P3201)), or no additive for 24 hours. Media was then collected and frozen at −80° C. until use in the ELISA assay.
Briefly, the ELISA assay employed a quantitative sandwich enzyme immunoassay technique whereby a capture antibody specific for HA can be pre-coated onto a microplate. Standards and media from treated and untreated cells were pipetted into the microplate wells to enable any HA present to be bound by the immobilized antibody. After washing away any unbound substances, an enzyme-linked detection antibody specific for HA was added to the wells. Following a wash to remove any unbound antibody-enzyme reagent, a substrate solution was added to the wells to allow color development in proportion to the amount of HA bound in the initial step. The color development was stopped at a specific time and the intensity of the color at 450 nm was measured using a microplate reader.

The test system of assay [4] is TNF-α. Briefly: Inhibition of TNF-α production by PMA-treated human epidermal keratinocytes (ELISA). From the text:
The prototype ligand of the TNF superfamily, TNF-α, is a pleiotropic cytokine that plays a central role in inflammation. Increase in its expression is associated with an up regulation in pro-inflammatory activity. This bioassay was used to analyze the effect of tetradecyl aminobutyroylvalylaminobutyric urea trifluoroacetate, and/or Alteromonas ferment filtrate on the production of TNF-α by human epidermal keratinocytes. The endpoint of this assay was a spectrophotometric measurement that reflects the presence of TNF-α and cellular viability. The assay employed the quantitative sandwich enzyme immunoassay technique whereby a monoclonal antibody specific for TNF-α has been pre-coated onto a microplate. Standards and samples were pipetted into the wells and any TNF-α present was bound by the immobilized antibody. After washing away any unbound substances, an enzyme-linked polyclonal antibody specific for TNF-α was added to the wells. Following a wash to remove any unbound antibody-enzyme reagent, a substrate solution was added to the wells and color develops in proportion to the amount of TNF-α bound in the initial step using a microplate reader for detection at 450 nm. The color development was stopped and the intensity of the color can be measured. […]

The values that follow come from US20200197472A1, “COSMETIC COMPOSITIONS” (Mary Kay Inc., priority 2018, published 2020).

As for `Cc1cc(=O)c2c(O)cc(O)cc2o1` [dihydroxymethyl chromone], the “Fibronectin Secretion, Activity compared to control” value in assay [1] was “+28%”. Also, the “Collagen Production, Activity compared to control” value in assay [2] is given as “+20%”.

For “tetradecyl aminobutyroylvalylaminobutyric urea trifluoroacetate [TAUT]”, in assay [3], the “production of hyaluronic acid (in words)” value is listed as “increases” and the “Hyaluronic Acid Production, Activity compared to control” value is “+64%”. In assay [4], the “production of TNF-α (in words)” value is on record as “inhibits”. In addition, in assay [4] (compared to PMA, human keratinocytes, PMA 10 ng/ml, 6 hours), the “TNF-α Production, Activity compared to control” value is listed as −100%. For the same compound, in assay [2], the “production of collagen (in words)” value is “increases” and the “Collagen Production, Activity compared to control” value is “+18%”.

Turning to tripeptide-1, in assay [3], the “production of hyaluronic acid (in words)” value is “increases” and the “Hyaluronic Acid Production, Activity compared to control” value is recorded as “+93%”. Besides, in assay [2], the “production of collagen (in words)” value is given as “increases” and the “Collagen Production, Activity compared to control” value is “+20%”.
